Source: patent US8247211B2, “Glycopeptide antibiotics” (American Cyanamid Company, priority 2001, dated 2012)
Converted amounts (≈) assume the structure as drawn. Each block holds one compound with its values, some of them ahead of it.

Columns and labels:
Assay in all cases: In vitro antibacterial evaluation: minimum inhibitory concentration (MIC), broth dilution method
Type in all cases: cell-based
Enterococcus sp. = settings: broth dilution, 18 hours at 35° C.
Method in brief: (§1)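 Following NCCLS approved standard M7-A2, compounds are serially diluted from 64 to 0.06 μg/mL in Muller-Hinton II […] and inoculated at 5×10^5 CFU/mL; the MIC is the minimum concentration at which growth is inhibited.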

Staphylococcus sp. = settings: broth dilution, 18 hours at 35° C.; for MIC Staphylococcus aureus-SMITH (GC 4543): strain SMITH GC 4543
Method in brief: as §1

Streptococcus sp. = settings: broth dilution, 18 hours at 35° C.
Method in brief: as §1

Escherichia coli = settings: broth dilution, 18 hours at 35° C.
[1] = Enterococcus faecalis (ATCC 29212)
[2] = Enterococcus faecalis (GC 2242)
[3] = Enterococcus faecalis (GC 2691)
[4] = Enterococcus faecalis (GC 3059)
[5] = Enterococcus faecalis (GC 4552)
[6] = Enterococcus faecalis (GC 4553)
[7] = Enterococcus faecalis (GC 4554)
[8] = Enterococcus faecalis (GC 6189)
[9] = Streptococcus agalactiae (GC 4564)
[10] = Streptococcus pneumoniae (ATCC 6301)
[11] = Streptococcus pneumoniae (GC 1894)
[12] = Streptococcus pneumoniae (GC 4565)
[13] = Streptococcus pyogenes (GC 4563)

MIC Enterococcus avium (GC 4558) (Enterococcus sp.; Enterococcus avium (GC 4558)): 4 µg/mL (≈ 3.55 µM) | MIC Enterococcus faecalis (ATCC 29212) (Enterococcus sp.; [1]): 8 µg/mL (≈ 7.09 µM) | MIC Enterococcus faecalis (GC 2242) (Enterococcus sp.; [2]): 8 µg/mL (≈ 7.09 µM) | MIC Enterococcus faecalis (GC 2691) (Enterococcus sp.; [3]): 8 µg/mL (≈ 7.09 µM) | MIC Enterococcus faecalis (GC 3059) (Enterococcus sp.; [4]): 16 µg/mL (≈ 14.2 µM) | MIC Enterococcus faecalis (GC 4552) (Enterococcus sp.; [5]): 8 µg/mL (≈ 7.09 µM) | MIC Enterococcus faecalis (GC 4553) (Enterococcus sp.; [6]): 8 µg/mL (≈ 7.09 µM) | MIC Enterococcus faecalis (GC 4554) (Enterococcus sp.; [7]): 8 µg/mL (≈ 7.09 µM) | MIC Enterococcus faecalis (GC 6189) (Enterococcus sp.; [8]): 8 µg/mL (≈ 7.09 µM) | MIC Enterococcus faecium (GC 2243) (Enterococcus sp.; Enterococcus faecium (GC 2243)): 4 µg/mL (≈ 3.55 µM) | MIC Enterococcus faecium (GC 4556) (Enterococcus sp.; Enterococcus faecium (GC 4556)): 16 µg/mL (≈ 14.2 µM) | MIC Enterococcus faecium (GC 4557) (Enterococcus sp.; Enterococcus faecium (GC 4557)): 2 µg/mL (≈ 1.77 µM) | MIC Enterococcus avium (GC 4558) (Enterococcus sp.): 4 µg/mL (≈ 3.55 µM) | MIC Enterococcus faecalis (ATCC 29212) (Enterococcus sp.): 8 µg/mL (≈ 7.09 µM) | MIC Enterococcus faecalis (GC 2242) (Enterococcus sp.): 8 µg/mL (≈ 7.09 µM) | MIC Enterococcus faecalis (GC 2691) (Enterococcus sp.): 8 µg/mL (≈ 7.09 µM) | MIC Enterococcus faecalis (GC 3059) (Enterococcus sp.): 16 µg/mL (≈ 14.2 µM) | MIC Enterococcus faecalis (GC 4552) (Enterococcus sp.): 8 µg/mL (≈ 7.09 µM) | MIC Enterococcus faecalis (GC 4553) (Enterococcus sp.): 8 µg/mL (≈ 7.09 µM) | MIC Enterococcus faecalis (GC 4554) (Enterococcus sp.): 8 µg/mL (≈ 7.09 µM) | MIC Enterococcus faecalis (GC 6189) (Enterococcus sp.): 8 µg/mL (≈ 7.09 µM) | MIC Enterococcus faecium (GC 2243) (Enterococcus sp.): 4 µg/mL (≈ 3.55 µM) | MIC Enterococcus faecium (GC 4556) (Enterococcus sp.): 16 µg/mL (≈ 14.2 µM) | MIC Enterococcus faecium (GC 4557) (Enterococcus sp.): 2 µg/mL (≈ 1.77 µM) | MIC Coagulase Negative Staphylococcus (GC 4547) (Staphylococcus sp.): 2 µg/mL (≈ 1.77 µM) | MIC Coagulase Negative Staphylococcus (GC 4548) (Staphylococcus sp.): 1 µg/mL (≈ 0.886 µM) | MIC Coagulase Negative Staphylococcus (GC 4549) (Staphylococcus sp.): 1 µg/mL (≈ 0.886 µM) | MIC Coagulase Negative Staphylococcus (GC 4551) (Staphylococcus sp.): 4 µg/mL (≈ 3.55 µM) | MIC Coagulase Negative Staphylococcus (GC 6257) (Staphylococcus sp.): 1 µg/mL (≈ 0.886 µM) | MIC Staphylococcus aureus SMITH (GC 4543) (Staphylococcus sp.): 2 µg/mL (≈ 1.77 µM) | MIC Staphylococcus aureus-SMITH (GC 4543) (Staphylococcus sp.): 2 µg/mL (≈ 1.77 µM) | MIC Streptococcus agalactiae (GC 4564) (Streptococcus sp.; [9]): 8 µg/mL (≈ 7.09 µM) | MIC Streptococcus pneumoniae (ATCC 6301) (Streptococcus sp.; [10]): 8 µg/mL (≈ 7.09 µM) | MIC Streptococcus pneumoniae (GC 1894) (Streptococcus sp.; [11]): 16 µg/mL (≈ 14.2 µM) | MIC Streptococcus pneumoniae (GC 4565) (Streptococcus sp.; [12]): 16 µg/mL (≈ 14.2 µM) | MIC Streptococcus pyogenes (GC 4563) (Streptococcus sp.; [13]): 4 µg/mL (≈ 3.55 µM) | MIC Streptococcus agalactiae (GC 4564) (Streptococcus sp.): 8 µg/mL (≈ 7.09 µM) | MIC Streptococcus pneumoniae (ATCC 6301) (Streptococcus sp.): 8 µg/mL (≈ 7.09 µM) | MIC Streptococcus pneumoniae (GC 1894) (Streptococcus sp.): 16 µg/mL (≈ 14.2 µM) | MIC Streptococcus pneumoniae (GC 4565) (Streptococcus sp.): 16 µg/mL (≈ 14.2 µM) | MIC Streptococcus pyogenes (GC 4563) (Streptococcus sp.): 4 µg/mL (≈ 3.55 µM) | MIC Escherichia coli (ATCC 25922) (Escherichia coli): 32 µg/mL (≈ 28.4 µM) | MIC Escherichia coli (GC 4559) (Escherichia coli): 32 µg/mL (≈ 28.4 µM) | MIC Escherichia coli (GC 4560) (Escherichia coli): 1 µg/mL (≈ 0.886 µM)
Compound: CC(c1ccccc1)C1NC(=O)CNC(=O)C(CO)NC(=O)C(CC2CNC(=N)N2C2OC(CO)C(O)C(O)C2O)NC(=O)C(CC2CNC(=N)N2)NC(=O)C(Cc2ccc3oc(-c4ccc5c(c4)Cc4ccccc4-5)nc3c2)NC1=O (stereo not drawn) [Example 42, Cyclo[3-[2-(9H-fluoren-2-yl)-1,3-benzoxazol-5-yl]alanyl-3-(2-iminoimidazolidin-4-yl)alanyl-3-(3-hexopyranosyl-2-iminoimidazolidin-4-yl)alanylserylglycyl-β-methylphenylalanyl]]
MIC Staphylococcus haemolyticus (GC 4546) (Staphylococcus sp.): 2 µg/mL (≈ 1.77 µM)

MIC Enterococcus avium (GC 4558) (Enterococcus sp.; Enterococcus avium (GC 4558)): 8 µg/mL (≈ 7.15 µM) | MIC Enterococcus faecalis (ATCC 29212) (Enterococcus sp.; [1]): 32 µg/mL (≈ 28.6 µM) | MIC Enterococcus faecalis (GC 2242) (Enterococcus sp.; [2]): 16 µg/mL (≈ 14.3 µM) | MIC Enterococcus faecalis (GC 2691) (Enterococcus sp.; [3]): 32 µg/mL (≈ 28.6 µM) | MIC Enterococcus faecalis (GC 3059) (Enterococcus sp.; [4]): 32 µg/mL (≈ 28.6 µM) | MIC Enterococcus faecalis (GC 4552) (Enterococcus sp.; [5]): 16 µg/mL (≈ 14.3 µM) | MIC Enterococcus faecalis (GC 4553) (Enterococcus sp.; [6]): 16 µg/mL (≈ 14.3 µM) | MIC Enterococcus faecalis (GC 4554) (Enterococcus sp.; [7]): 16 µg/mL (≈ 14.3 µM) | MIC Enterococcus faecalis (GC 6189) (Enterococcus sp.; [8]): 16 µg/mL (≈ 14.3 µM) | MIC Enterococcus faecium (GC 2243) (Enterococcus sp.; Enterococcus faecium (GC 2243)): 16 µg/mL (≈ 14.3 µM) | MIC Enterococcus faecium (GC 4556) (Enterococcus sp.; Enterococcus faecium (GC 4556)): 32 µg/mL (≈ 28.6 µM) | MIC Enterococcus faecium (GC 4557) (Enterococcus sp.; Enterococcus faecium (GC 4557)): 4 µg/mL (≈ 3.58 µM) | MIC Enterococcus avium (GC 4558) (Enterococcus sp.): 8 µg/mL (≈ 7.15 µM) | MIC Enterococcus faecalis (ATCC 29212) (Enterococcus sp.): 32 µg/mL (≈ 28.6 µM) | MIC Enterococcus faecalis (GC 2242) (Enterococcus sp.): 16 µg/mL (≈ 14.3 µM) | MIC Enterococcus faecalis (GC 2691) (Enterococcus sp.): 32 µg/mL (≈ 28.6 µM) | MIC Enterococcus faecalis (GC 3059) (Enterococcus sp.): 32 µg/mL (≈ 28.6 µM) | MIC Enterococcus faecalis (GC 4552) (Enterococcus sp.): 16 µg/mL (≈ 14.3 µM) | MIC Enterococcus faecalis (GC 4553) (Enterococcus sp.): 16 µg/mL (≈ 14.3 µM) | MIC Enterococcus faecalis (GC 4554) (Enterococcus sp.): 16 µg/mL (≈ 14.3 µM) | MIC Enterococcus faecalis (GC 6189) (Enterococcus sp.): 16 µg/mL (≈ 14.3 µM) | MIC Enterococcus faecium (GC 2243) (Enterococcus sp.): 16 µg/mL (≈ 14.3 µM) | MIC Enterococcus faecium (GC 4556) (Enterococcus sp.): 32 µg/mL (≈ 28.6 µM) | MIC Enterococcus faecium (GC 4557) (Enterococcus sp.): 4 µg/mL (≈ 3.58 µM) | MIC Coagulase Negative Staphylococcus (GC 4547) (Staphylococcus sp.): 4 µg/mL (≈ 3.58 µM) | MIC Coagulase Negative Staphylococcus (GC 4548) (Staphylococcus sp.): 8 µg/mL (≈ 7.15 µM) | MIC Coagulase Negative Staphylococcus (GC 4549) (Staphylococcus sp.): 4 µg/mL (≈ 3.58 µM) | MIC Coagulase Negative Staphylococcus (GC 4551) (Staphylococcus sp.): 8 µg/mL (≈ 7.15 µM) | MIC Coagulase Negative Staphylococcus (GC 6257) (Staphylococcus sp.): 4 µg/mL (≈ 3.58 µM) | MIC Staphylococcus aureus SMITH (GC 4543) (Staphylococcus sp.): 8 µg/mL (≈ 7.15 µM) | MIC Staphylococcus aureus-SMITH (GC 4543) (Staphylococcus sp.): 8 µg/mL (≈ 7.15 µM) | MIC Streptococcus agalactiae (GC 4564) (Streptococcus sp.; [9]): 16 µg/mL (≈ 14.3 µM) | MIC Streptococcus pneumoniae (ATCC 6301) (Streptococcus sp.; [10]): 16 µg/mL (≈ 14.3 µM) | MIC Streptococcus pneumoniae (GC 1894) (Streptococcus sp.; [11]): 16 µg/mL (≈ 14.3 µM) | MIC Streptococcus pneumoniae (GC 4565) (Streptococcus sp.; [12]): 32 µg/mL (≈ 28.6 µM) | MIC Streptococcus pyogenes (GC 4563) (Streptococcus sp.; [13]): 4 µg/mL (≈ 3.58 µM) | MIC Streptococcus agalactiae (GC 4564) (Streptococcus sp.): 16 µg/mL (≈ 14.3 µM) | MIC Streptococcus pneumoniae (ATCC 6301) (Streptococcus sp.): 16 µg/mL (≈ 14.3 µM) | MIC Streptococcus pneumoniae (GC 1894) (Streptococcus sp.): 16 µg/mL (≈ 14.3 µM) | MIC Streptococcus pneumoniae (GC 4565) (Streptococcus sp.): 32 µg/mL (≈ 28.6 µM) | MIC Streptococcus pyogenes (GC 4563) (Streptococcus sp.): 4 µg/mL (≈ 3.58 µM) | MIC Escherichia coli (ATCC 25922) (Escherichia coli): 16 µg/mL (≈ 14.3 µM) | MIC Escherichia coli (GC 4559) (Escherichia coli): 16 µg/mL (≈ 14.3 µM) | MIC Escherichia coli (GC 4560) (Escherichia coli): 4 µg/mL (≈ 3.58 µM)
Compound: CC(c1ccccc1)C1NC(=O)CNC(=O)C(CO)NC(=O)C(C(O)C2CNC(=N)N2C2OC(CO)C(O)C(O)C2O)NC(=O)C(C(O)C2CNC(=N)N2)NC(=O)C(Cc2ccc3oc(SCc4ccccc4)nc3c2)NC1=O (stereo not drawn) [Example 45, Cyclo[3-[2-(benzylthio)-1,3-benzoxazol-5-yl]alanyl-3-(2-iminoimidazolidin-4-yl)seryl-3-(3-hexopyranosyl-2-iminoimidazolidin-4-yl)serylserylglycyl-β-methylphenylalanyl]]
MIC Staphylococcus haemolyticus (GC 4546) (Staphylococcus sp.): 4 µg/mL (≈ 3.58 µM)
